Assay results taken from ChEMBL document CHEMBL1671762, “Tolerance of benznidazole in treatment of Chagas' disease in adults” (Antimicrob Agents Chemother, 2010).

What was measured:
[1] = tested on: Homo sapiens; assay: Toxicity in human patient infected with Trypanosoma cruzi assessed as occurrence of Palmar-plantar rash at 5 mg/kg/day for 60 days; format: organism-based; conditions: in vivo, 1440 h
[2] = species: Homo sapiens; assay: Toxicity in human patient infected with Trypanosoma cruzi assessed as occurrence of thrombopenic purpura after 2nd week of treatment; format: organism-based; conditions: in vivo
[3] = tested on: Homo sapiens; assay: Toxicity in human patient infected with Trypanosoma cruzi assessed as occurrence of cardiac disorders at 5 mg/kg/day for 60 days; format: organism-based, Heart; conditions: in vivo, 1440 h
[4] = tested on: Homo sapiens; assay: Toxicity in human patient infected with Trypanosoma cruzi assessed as occurrence of Vomiting at 5 mg/kg/day for 60 days; format: organism-based; conditions: in vivo, 1440 h
[5] = species: Homo sapiens; assay: Toxicity in human patient infected with Trypanosoma cruzi assessed as occurrence of myalgias; format: organism-based; conditions: in vivo
[6] = species: Homo sapiens; assay: Toxicity in human patient infected with Trypanosoma cruzi assessed as occurrence of dermatitis with cutaneous eruptions on day 7 to 10; format: organism-based; conditions: in vivo
[7] = species: Homo sapiens; assay: Toxicity in human patient infected with Trypanosoma cruzi assessed as occurrence of paresthesias on 4th week of treatment; format: organism-based; conditions: in vivo
[8] = tested on: Homo sapiens; assay: Toxicity in human patient infected with Trypanosoma cruzi assessed as occurrence of Diarrhea at 5 mg/kg/day for 60 days; format: organism-based; conditions: in vivo, 1440 h
[9] = tested on: Homo sapiens; assay: Toxicity in human patient infected with Trypanosoma cruzi assessed as occurrence of Arthritis at 5 mg/kg/day for 60 days; format: organism-based; conditions: in vivo, 1440 h
[10] = tested on: Homo sapiens; assay: Toxicity in human patient infected with Trypanosoma cruzi assessed as occurrence of Arthromyalgia at 5 mg/kg/day for 60 days; format: organism-based; conditions: in vivo, 1440 h
[11] = tested on: Homo sapiens; assay: Toxicity in human patient infected with Trypanosoma cruzi assessed as occurrence of Anorexia at 5 mg/kg/day for 60 days; format: organism-based; conditions: in vivo, 1440 h
[12] = tested on: Homo sapiens; assay: Toxicity in human patient infected with Trypanosoma cruzi assessed as occurrence of Edema at 5 mg/kg/day for 60 days; format: organism-based; conditions: in vivo, 1440 h
[13] = tested on: Homo sapiens; assay: Toxicity in human patient infected with Trypanosoma cruzi assessed as occurrence of Dyshidrosis at 5 mg/kg/day for 60 days; format: organism-based; conditions: in vivo, 1440 h
[14] = tested on: Homo sapiens; assay: Toxicity in human patient infected with Trypanosoma cruzi assessed as occurrence of Headache at 5 mg/kg/day for 60 days; format: organism-based; conditions: in vivo, 1440 h
[15] = species: Homo sapiens; assay: Toxicity in human patient infected with Trypanosoma cruzi assessed as occurrence of lymphadenopathy; format: organism-based; conditions: in vivo
[16] = tested on: Homo sapiens; assay: Toxicity in human patient infected with Trypanosoma cruzi assessed as occurrence of Erythema nodosum at 5 mg/kg/day for 60 days; format: organism-based; conditions: in vivo, 1440 h
[17] = tested on: Homo sapiens; assay: Toxicity in human patient infected with Trypanosoma cruzi assessed as occurrence of Abdominal bloating at 5 mg/kg/day for 60 days; format: organism-based, Abdomen; conditions: in vivo, 1440 h
[18] = tested on: Homo sapiens; assay: Toxicity in human patient infected with Trypanosoma cruzi assessed as occurrence of Heartburn at 5 mg/kg/day for 60 days; format: organism-based; conditions: in vivo, 1440 h
[19] = tested on: Homo sapiens; assay: Toxicity in human patient infected with Trypanosoma cruzi assessed as occurrence of Urticaria at 5 mg/kg/day for 60 days; format: organism-based; conditions: in vivo, 1440 h
[20] = species: Homo sapiens; assay: Toxicity in human patient infected with Trypanosoma cruzi assessed as occurrence of polyneuritis on 4th week of treatment; format: organism-based; conditions: in vivo
[21] = tested on: Homo sapiens; assay: Toxicity in human patient infected with Trypanosoma cruzi assessed as occurrence of Weakness at 5 mg/kg/day for 60 days; format: organism-based; conditions: in vivo, 1440 h
[22] = tested on: Homo sapiens; assay: Toxicity in human patient infected with Trypanosoma cruzi assessed as occurrence of Gastrointestinal disorders at 5 mg/kg/day for 60 days; format: organism-based; conditions: in vivo, 1440 h
[23] = tested on: Homo sapiens; assay: Toxicity in human patient infected with Trypanosoma cruzi assessed as occurrence of Nausea at 5 mg/kg/day for 60 days; format: organism-based; conditions: in vivo, 1440 h
[24] = tested on: Homo sapiens; assay: Toxicity in human patient infected with Trypanosoma cruzi assessed as occurrence of Hyperpigmentation at 5 mg/kg/day for 60 days; format: organism-based; conditions: in vivo, 1440 h
[25] = tested on: Homo sapiens; assay: Toxicity in human patient infected with Trypanosoma cruzi assessed as occurrence of Paresthesia at 5 mg/kg/day for 60 days; format: organism-based; conditions: in vivo, 1440 h
[26] = species: Homo sapiens; assay: Toxicity in human patient infected with Trypanosoma cruzi assessed as occurrence of polyneuropathy on 4th week of treatment; format: organism-based; conditions: in vivo
[27] = tested on: Homo sapiens; assay: Toxicity in human patient infected with Trypanosoma cruzi assessed as occurrence of Fever at 5 mg/kg/day for 60 days; format: organism-based; conditions: in vivo, 1440 h
[28] = species: Homo sapiens; assay: Toxicity in human patient infected with Trypanosoma cruzi assessed as occurrence of arthralgias; format: organism-based; conditions: in vivo
[29] = tested on: Homo sapiens; assay: Toxicity in human patient infected with Trypanosoma cruzi assessed as occurrence of Hearing impairment at 5 mg/kg/day for 60 days; format: organism-based; conditions: in vivo, 1440 h
[30] = tested on: Homo sapiens; assay: Toxicity in human patient infected with Trypanosoma cruzi assessed as occurrence of dolichocolon at 5 mg/kg/day for 60 days; format: organism-based, Colon; conditions: in vivo, 1440 h
[31] = tested on: Homo sapiens; assay: Toxicity in human patient infected with Trypanosoma cruzi assessed as occurrence of Articular involvement at 5 mg/kg/day for 60 days; format: organism-based; conditions: in vivo, 1440 h
[32] = species: Homo sapiens; assay: Toxicity in human patient infected with Trypanosoma cruzi assessed as occurrence of agranulocytosis after 2nd week of treatment; format: organism-based; conditions: in vivo
[33] = tested on: Homo sapiens; assay: Toxicity in human patient infected with Trypanosoma cruzi assessed as occurrence of Dermatological disorder at 5 mg/kg/day for 60 days; format: organism-based; conditions: in vivo, 1440 h
[34] = tested on: Homo sapiens; assay: Toxicity in human patient infected with Trypanosoma cruzi assessed as occurrence of Epigastralgia at 5 mg/kg/day for 60 days; format: organism-based; conditions: in vivo, 1440 h
[35] = tested on: Homo sapiens; assay: Toxicity in human patient infected with Trypanosoma cruzi assessed as occurrence of Dysphagia at 5 mg/kg/day for 60 days; format: organism-based; conditions: in vivo, 1440 h
[36] = tested on: Homo sapiens; assay: Toxicity in human patient infected with Trypanosoma cruzi assessed as occurrence of Petechial rash at 5 mg/kg/day for 60 days; format: organism-based; conditions: in vivo, 1440 h
[37] = tested on: Homo sapiens; assay: Toxicity in human patient infected with Trypanosoma cruzi assessed as occurrence of Itching at 5 mg/kg/day for 60 days; format: organism-based; conditions: in vivo, 1440 h
[38] = tested on: Homo sapiens; assay: Toxicity in human patient infected with Trypanosoma cruzi assessed as occurrence of Aphthous stomatitis at 5 mg/kg/day for 60 days; format: organism-based; conditions: in vivo, 1440 h
[39] = species: Homo sapiens; assay: Toxicity in human patient infected with Trypanosoma cruzi assessed as occurrence of hypersensitivity on day 7 to 10; format: organism-based; conditions: in vivo
[40] = tested on: Homo sapiens; assay: Toxicity in human patient infected with Trypanosoma cruzi assessed as occurrence of Mucositis at 5 mg/kg/day for 60 days; format: organism-based; conditions: in vivo, 1440 h

O=C(Cn1ccnc1[N+](=O)[O-])NCc1ccccc1 [BENZNIDAZOLE]
Activity [1]: Toxic | Activity [2]: Toxic | Activity [3]: 12.4% | Activity [4]: Toxic | Activity [5]: Toxic | Activity [6]: Toxic | Activity [7]: Toxic | Activity [8]: Toxic | Activity [9]: Toxic | Activity [10]: Toxic | Activity [11]: 40% | Activity [12]: Toxic | Activity [13]: Toxic | Activity [14]: 56.2% | Activity [15]: Toxic | Activity [16]: Toxic | Activity [17]: Toxic | Activity [18]: Toxic | Activity [19]: 43.4% | Activity [20]: Toxic | Activity [21]: 30% | Activity [22]: 15% | Activity [23]: Toxic | Activity [24]: Toxic | Activity [25]: 27.6% | Activity [26]: Toxic | Activity [27]: 11% | Activity [28]: Toxic | Activity [29]: 1% | Activity [30]: 1.9% | Activity [31]: 36.2% | Activity [32]: Toxic | Activity [33]: 50.5% | Activity [34]: Toxic | Activity [35]: Toxic | Activity [36]: 35.8% | Activity [37]: 13.2% | Activity [38]: 1% | Activity [39]: Toxic | Activity [40]: Toxic
